In US8703776B2 (Cymabay Therapeutics, Inc., priority 2011, dated 2014):

What follows are molecules tested against T1, human GPR131 (Homo sapiens, UniProt Q8TDU6) (assay: Stimulation of cAMP in stable cell line expressing human GPR131 (FRET cAMP kit)). Settings: 0.5 h; 1.1 μM compound, relative to maximal stimulatory activity of lithocholic acid at 3.3 μM; 30 minutes at 37° C.; read-out: Percent Activity @ 1.1 μM (of 3.3 uM LCA) (%).
T1 construct: expressed in transfected cells
T1 sequence (Q8TDU6 1-330): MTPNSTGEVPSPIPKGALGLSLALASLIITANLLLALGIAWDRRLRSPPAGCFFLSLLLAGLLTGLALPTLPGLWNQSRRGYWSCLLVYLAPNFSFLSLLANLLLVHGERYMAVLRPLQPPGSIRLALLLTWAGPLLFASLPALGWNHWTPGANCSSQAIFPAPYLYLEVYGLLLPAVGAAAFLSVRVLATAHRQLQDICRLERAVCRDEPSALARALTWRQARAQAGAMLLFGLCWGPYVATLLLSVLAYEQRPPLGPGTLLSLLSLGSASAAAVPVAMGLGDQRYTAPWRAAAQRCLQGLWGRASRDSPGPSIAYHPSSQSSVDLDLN
Type: cell-based
Procedure: This assay was developed using a stable cell line expressing human GPR131.
To measure cAMP activity in response to GPR131 agonists, GPR131 cells suspended in DMEM/F12 medium with 1 mM IBMX were seeded in 384 well plates at 5000 cells per well. After incubating with test compounds at 37° C. for 30 minutes cAMP was measured using a fluorescene resonance energy transfer cAMP kit from Cis Bio (Bedford, Mass.) according to the manufacturer's instructions. Briefly, cells were lysed, and cAMP levels determined by competitive immunoassay using D2 labeled cAMP, and europium cryptate tagged anti cAMP antibody. Decreases in the FRET signal (fluorescence ratio (665 nm/620 […]) correspond to increases in intracellular cAMP levels.
Activities of test compounds in Table 1 below are expressed as % activity at 1.1 μM compound compared to the maximal stimulatory activity of lithocholic acid (LCA) (determined at 3.3 μM LCA)

Row | activation at 1.1 µM | SMILES
1 | 82% | CN(Cc1cccnc1)C(=O)c1cnc(SCc2c(F)ccc(F)c2F)n1-c1ccc(F)cc1 [Compound 603, 1-(4-Fluorophenyl)-N-methyl-N-(pyridin-3-ylmethyl)-2-((2,3,6-trifluorobenzyl)thio)-1H-imidazole-5-carboxamide]
2 | 100% | CN(Cc1ccncc1)C(=O)c1cnc(SCc2ccccc2F)n1-c1ccc(F)cc1 [Compound 613, 2-((2-Fluorobenzyl)thio)-1-(4-fluorophenyl)-N-methyl-N-(pyridin-4-ylmethyl)-1H-imidazole-5-carboxamide]
3 | 96% | Cc1nn(C)cc1CN(C)C(=O)c1cnc(CCc2c(F)ccc(F)c2F)n1-c1ccc(F)cc1 [Compound 523, N-((1,3-Dimethyl-1H-pyrazol-4-yl)methyl)-1-(4-fluorophenyl)-N-methyl-2-(2,3,6-trifluorophenethyl)-1H-imidazole-5-carboxamide]
4 | 98% | Cc1nn(C)cc1CN(C)C(=O)c1cnc(SCc2ccccc2Cl)n1-c1ccc(F)cc1 [Compound 549, 2-((2-Chlorobenzyl)thio)-N-((1,3-dimethyl-1H-pyrazol-4-yl)methyl)-1-(4-fluorophenyl)-N-methyl-1H-imidazole-5-carboxamide]
5 | 97% | Cc1cc(CN(C)C(=O)c2c(C)nc(SCc3c(F)ccc(F)c3F)n2-c2ccc(F)cc2)ccn1 [Compound 585, 1-(4-Fluorophenyl)-N-4-dimethyl-N-((2-methylpyridin-4-yl)methyl)-2-((2,3,6-trifluorobenzyl)thio)-1H-imidazole-5-carboxamide]
6 | 100% | Cc1ccc(Cl)c(CSc2ncc(C(=O)N(C)Cc3cn(C)nc3C)n2-c2ccc(F)cc2)c1F [Compound 597, 2-((6-Chloro-2-fluoro-3-methylbenzyl)thio)-N-((1,3-dimethyl-1H-pyrazol-4-yl)methyl)-1-(4-fluorophenyl)-N-methyl-1H-imidazole-5-carboxamide]
7 | 100% | Cc1nn(C)cc1CN(C)C(=O)c1cnc(SCc2cc3ccccn3n2)n1-c1ccc(F)cc1 [Compound 632, N-((1,3-Dimethyl-1H-pyrazol-4-yl)methyl)-1-(4-fluorophenyl)-N-methyl-2-((pyrazolo[1,5-a]pyridin-2-ylmethyl)thio)-1H-imidazole-5-carboxamide]
8 | 87% | Cc1cc(CN(C)C(=O)c2cnc(I)n2-c2ccc(F)cc2)ccn1 [Compound 589, 1-(4-Fluorophenyl)-2-iodo-N-methyl-N-((2-methylpyridin-4-yl)methyl)-1H-imidazole-5-carboxamide]
9 | 100% | COc1ccc(Cl)c(CSc2ncc(C(=O)N(C)Cc3cn(C)nc3C)n2-c2ccc(F)cc2)c1F [Compound 596, 2-((6-Chloro-2-fluoro-3-methoxybenzyl)thio)-N-((1,3-dimethyl-1H-pyrazol-4-yl)methyl)-1-(4-fluorophenyl)-N-methyl-1H-imidazole-5-carboxamide]
10 | 99% | CN(Cc1ccncc1)C(=O)c1cnc(SCc2c(F)ccc(F)c2Cl)n1-c1ccc(F)cc1 [Compound 617, 2-((2-Chloro-3,6-difluorobenzyl)thio)-1-(4-fluorophenyl)-N-methyl-N-(pyridin-4-ylmethyl)-1H-imidazole-5-carboxamide]
11 | 100% | Cc1ccc(Cl)c(CSc2ncc(C(=O)N(C)Cc3ccncc3)n2-c2ccc(F)cc2)c1F [Compound 622, 2-((6-Chloro-2-fluoro-3-methylbenzyl)thio)-1-(4-fluorophenyl)-N-methyl-N-(pyridin-4-ylmethyl)-1H-imidazole-5-carboxamide]
12 | 100% | Cc1nn(C)cc1CN(C)C(=O)c1cnc(SCc2c(F)cccc2Cl)n1-c1ccc(Cl)cc1 [Compound 553, 2-((2-Chloro-6-fluorobenzyl)thio)-1-(4-chlorophenyl)-N-((1,3-dimethyl-1H-pyrazol-4-yl)methyl)-N-methyl-1H-imidazole-5-carboxamide]
13 | 88% | Cc1nn(C)cc1CN(C)C(=O)c1cnc(CSCc2c(F)ccc(F)c2F)n1-c1ccc(F)cc1 [Compound 572, N-((1,3-Dimethyl-1H-pyrazol-4-yl)methyl)-1-(4-fluorophenyl)-N-methyl-2-(((2,3,6-trifluorobenzyl)thio)methyl)-1H-imidazole-5-carboxamide]
14 | 94% | CCOC(=O)CSc1ncc(C(=O)N(C)Cc2cn(C)nc2C)n1-c1ccc(F)cc1 [Compound 637, Ethyl 2-((5-(((1,3-dimethyl-1H-pyrazol-4-yl)methyl)(methyl)carbamoyl)-1-(4-fluorophenyl)-1H-imidazol-2-yl)thio)acetate]
15 | 98% | Cc1nn(C)cc1CN(C)C(=O)c1cnc(CSc2c(F)c(F)cc(F)c2F)n1-c1ccc(F)cc1 [Compound 569, N-((1,3-Dimethyl-1H-pyrazol-4-yl)methyl)-1-(4-fluorophenyl)-N-methyl-2-(((2,3,5,6-tetrafluorophenyl)thio)methyl)-1H-imidazole-5-carboxamide]
16 | 98% | CN(Cc1cnn(C)c1)C(=O)c1cnc(SCc2c(F)ccc(F)c2F)n1-c1ccc(F)cc1 [Compound 520, 1-(4-Fluorophenyl)-N-methyl-N-((1-methyl-1H-pyrazol-4-yl)methyl)-2-((2,3,6-trifluorobenzyl)thio)-1H-imidazole-5-carboxamide]
17 | 98% | COc1ccc(Cl)c(CSc2nnc(C(=O)N(C)Cc3ccncc3)n2-c2ccc(F)cc2)c1F [Compound 594, 5-((6-Chloro-2-fluoro-3-methoxybenzyl)thio)-4-(4-fluorophenyl)-N-methyl-N-(pyridin-4-ylmethyl)-4H-1,2,4-triazole-3-carboxamide]
18 | 85% | Cc1nn(C)cc1CN(C)C(=O)c1cnc(SCc2ccncc2)n1-c1ccc(F)cc1 [Compound 579, N-((1,3-Dimethyl-1H-pyrazol-4-yl)methyl)-1-(4-fluorophenyl)-N-methyl-2-((pyridine-4-ylmethyl)thio)-1H-imidazole-5-carboxamide]
19 | 100% | Cc1nn(C)cc1CN(C)C(=O)c1cnc(SCc2c(F)cc(C(=O)OC(C)(C)C)cc2F)n1-c1ccc(F)cc1 [Compound 542, tert-butyl 4-(((5-(((1,3-Dimethyl-1H-pyrazol-4-yl)methyl)(methyl)carbamoyl)-1-(4-fluorophenyl)-1H-imidazol-2-yl)thio)methyl)-3,5-difluorobenzoate]
20 | 100% | Fc1ccc(-n2c(COCc3ccncc3)cnc2SCc2c(F)ccc(F)c2F)cc1 [Compound 530, 4-(((1-(4-Fluorophenyl)-2-((2,3,6-trifluorobenzyl)thio)-1H-imidazol-5-yl)methoxy)methyl)pyridine]
21 | 82% | Cc1ccccc1CSc1ncc(C(=O)N(C)Cc2ccncc2)n1-c1ccc(F)cc1 [Compound 562, 1-(4-Fluorophenyl)-N-methyl-2-((2-methylbenzyl)thio)-N-(pyridin-4-ylmethyl)-1H-imidazole-5-carboxamide]
22 | 90% | CN(Cc1ccncc1)C(=O)c1cnc(CCc2ccccc2F)n1-c1ccc(F)cc1 [Compound 538, 2-(2-Fluorophenethyl)-1-(4-fluorophenyl)-N-methyl-N-(pyridin-4-ylmethyl)-1H-imidazole-5-carboxamide]
23 | 100% | CCN(Cc1ccncc1)C(=O)c1cnc(SCc2c(Cl)ccc(C)c2F)n1-c1ccc(F)cc1 [Compound 627, 2-((6-Chloro-2-fluoro-3-methylbenzyl)thio)-N-ethyl-1-(4-fluorophenyl)-N-(pyridin-4-ylmethyl)-1H-imidazole-5-carboxamide]
24 | 96% | Cc1nn(C)cc1CN(C)C(=O)c1cnc(CSc2c(Cl)cccc2Cl)n1-c1ccc(F)cc1 [Compound 567, 2-(((2,6-Dichlorophenyl)thio)methyl)-N-((1,3-dimethyl-1H-pyrazol-4-yl)methyl)-1-(4-fluorophenyl)-N-methyl-1H-imidazole-5-carboxamide]
25 | 95% | O=C(c1cnc(SCc2c(F)cccc2Cl)n1-c1ccc(F)cc1)N1CCCC1c1ccncc1 (stereo not shown) [Compound 539, (2-((2-Chloro-6-fluorobenzyl)thio)-1-(4-fluorophenyl)-1H-imidazol-5-yl)(2-(pyridin-4-yl)pyrrolidin-1-yl)methanone]
26 | 98% | Fc1ccc(-n2c(COCc3ccncc3)nnc2SCc2c(F)ccc(F)c2F)cc1 [Compound 606]
27 | 100% | Cc1nn(C)cc1CN(C)C(=O)c1cnc(SCc2nc3ccccc3o2)n1-c1ccc(F)cc1 [Compound 629, 2-((Benzo[d]oxazol-2-ylmethyl)thio)-N-((1,3-dimethyl-1H-pyrazol-4-yl)methyl)-1-(4-fluorophenyl)-N-methyl-1H-imidazole-5-carboxamide]
28 | 99% | CN(Cc1ccnc(Cl)c1)C(=O)c1cnc(SCc2c(F)ccc(F)c2F)n1-c1ccc(F)cc1 [Compound 578, N-((2-Chloropyridin-4-yl)methyl)-1-(4-fluorophenyl)-N-methyl-2-((2,3,6-trifluorobenzyl)thio)-1H-imidazole-5-carboxamide]
